# According to patent US6169181A, “Compounds useful to treat retroviral infections” (Pharmacia & Upjohn Company, priority 1998, dated 2001):
# Values joined by “and” are separate entries in the source; they are usually repeats but may differ in a detail not shown here. Equal entries are not always repeated.
# Assays:
# HIV-1 protease [1] = biological target: T1, HIV-1 protease (Human immunodeficiency virus type 1 group M subtype B, UniProt P04585); test: biochemical; conditions: Table I; for inhibition at 0.123 µM / inhibition at 0.37 µM / inhibition at 1.1 µM / inhibition at 3.3 µM / inhibition at 10 µM / inhibition at 30 µM: read-out: Protease % Inhib
# Procedure: (§1) The HIV protease screening assay is based on fluorescently labeled substrate which can be resolved from nonlabeled cleavage product using special beads coated with streptavidin. The substrate is biotinylated at the amino terminal arginine and fluorescently labeled with fluorescein isothiocynate (FITC) at the carboxyl terminal lysine. This assay has been employed to detect novel, nonpeptidic inhibitors of HIV-1 protease. Substrate (20 μM of 0.2 μM), sample (10 μl of desired concentraion), and enzyme (10 μl of 0.1 μM) are added to a 96 well pandex plate. The assay is run in 0.1 M sodium acetate buffer at pH 5.5 in the presence of 1.0 M sodium chloride and 0.05% NP-40 with incubated in the dark for one hour at room temperature. Strepavidin coated polystyrene beads {40 μl of 0.1% (w/v)} are added and the plate is incubated in the dark for an additional half hour. The labeled cleavage product is separated from the unreacted substrate via filtration and is read on the Idexx screen machine. The data are analyzed by appropriate computer algorithms to ascertain percent inhibition values.
# HIV-1 protease [2] = biological target: T1, HIV-1 protease; test: biochemical; conditions: Table I; read-out: HIV Protease FITC Assay Ki
# Procedure: as §1, with “This assay has been employed to detect novel, nonpeptidic inhibitors of HIV-1 protease.” left out
# Determination of Ki values utilizes the same materials and equipment employed for percent inhibition studies. Two-fold serial dilutions are made for a given inhibitor from 2, 3 or 4 starting concentrations with a total of 24, 36 or 48 individual inhibitor concentrations. These dilutions are performed utilizing the BioMek robotics system. The assay consists of 10 μL of 40 nM HIV-1 protease, 10 μL of the various inhibitor concentrations, and 20 μL of 200 μM substrate (40 μL total). The reaction is allowed to proceed for 90 min at room temperature, terminated with 40 μL of avidin beads and processed (supra vide). An inhibitor with a known K; is run in parallel to verify the validity of the assay. The data is processed utilizing a computer program employing a nonlinear least square analysis of the data to generate the Ki values.
SMILES,PROTEASE % INHIB. (HIV-1 protease [1]; Dose 0.123 μM) [%],PROTEASE % INHIB. (HIV-1 protease [1]; Dose 0.370 μM) [%],PROTEASE % INHIB. (HIV-1 protease [1]; Dose 1.100 μM) [%],PROTEASE % INHIB. (HIV-1 protease [1]; Dose 3.300 μM) [%],PROTEASE % INHIB. (HIV-1 protease [1]; Dose 10.000 μM) [%],PROTEASE % INHIB. (HIV-1 protease [1]; Dose 30.000 μM) [%],Ki (HIV-1 protease [2]),inhibition at 0.123 µM (HIV-1 protease [1]; Dose 0.123 μM) [%],inhibition at 0.37 µM (HIV-1 protease [1]; Dose 0.370 μM) [%],inhibition at 1.1 µM (HIV-1 protease [1]; Dose 1.100 μM) [%],inhibition at 3.3 µM (HIV-1 protease [1]; Dose 3.300 μM) [%],inhibition at 10 µM (HIV-1 protease [1]; Dose 10.000 μM) [%],inhibition at 30 µM (HIV-1 protease [1]; Dose 30.000 μM) [%]
"CCCC1(CCC)CC(O)=C(C(CC)c2cccc(NS(=O)(=O)c3cccc4cccnc34)c2)C(=O)O1 (single isomer, unassigned) [Example 54, (S or R)-N-[3-[1-(4-Hydroxy-2-oxo-6,6-dipropyl-5,6-dihydro-2H-pyran-3-yl)-propyl]-phenyl]-8-quinolinesulfonamide]",46.64,72.41,87.91,89.11,87.77,91.99,13.3 nM,–,–,–,–,–,–
"CCCC1(CCC)CC(O)=C(C(CC)c2cccc(NS(=O)(=O)c3cn(C)cn3)c2)C(=O)O1 (single isomer, unassigned) [Example 55, (S or R)-N-[3-[1-(4-hydroxy-2-oxo-6,6-dipropyl-5,6-dihydro-2H-pyran-3-yl)-propyl]-phenyl]-1-methyl-1H-imidazole-4-sulfonamide]",< 10,18.77,58.27,86.98,98.33,85.88,1.7 nM,–,–,–,–,–,–
"CCCC1(CCC)CC(O)=C(C(c2cccc(NS(=O)(=O)c3cn(C)cn3)c2)C2CC2)C(=O)O1 (single isomer, unassigned) [Example 56, (R or S)-N-[3-[1-(4-Hydroxy-2-oxo-6,6-dipropyl-5,6-dihydro-2H-pyran-3-yl)-cyclopropylmethyl]-phenyl]-1-methyl-1H-imidazole-4-sulfonamide]",–,–,–,–,–,–,0.23 nM,104,108,105,105,115,111
"CCCC1(CCC)CC(O)=C(C(c2cccc(NS(=O)(=O)c3cn(C)cn3)c2)C2CC2)C(=O)O1 (single isomer, unassigned) [Example 57]",99.07,105.17,110.68,97.8,104.74,115.02,0.36 nM,–,–,–,–,–,–
"CC[C@H](Cc1ccccc1)c1cc(O)c(C(c2cccc(NS(=O)(=O)c3cn(C)cn3)c2)C2CC2)c(=O)o1 (single isomer, unassigned) [Example 137, N-(3-(R or S)-{Cyclopropyl-[6-(1-(R)-ethylphenethyl)-4-hydroxy-2-oxo-2H-pyran-3-yl]-methyl}-phenyl)-1-methyl-1H-imidazole-4-sulfonamide]",–,–,–,–,–,–,0.52 nM and 0.7 nM,98.8,91.5,101,110,98.2,93.8
"CC[C@H](Cc1ccccc1)c1cc(O)c(C(c2cccc(NS(=O)(=O)c3cn(C)cn3)c2)C2CC2)c(=O)o1 (single isomer, unassigned) [Example 138, N-(3-(R or S)-[Cyclopropyl-[6-(l-(R)-ethylphenethyl)-4-hydroxy-2-oxo-2H-pyran-3-yl]-methyl}-phenyl)-1-methyl-1H-imidazole-4-sulfonamide]",–,–,–,–,–,–,0.73 nM and 1.4 nM,101,95.5,101,99.6,94.8,105
"CC[C@@H](Cc1ccccc1)c1cc(O)c(C(c2cccc(NS(=O)(=O)c3cn(C)cn3)c2)C2CC2)c(=O)o1 (single isomer, unassigned) [Example 139, N-(3-(R or S)-{Cyclopropyl-[6-(1-(S)-ethylphenethyl)-4-hydroxy-2-oxo-2H-pyran-3-yl]-methyl}-phenyl)-1-methyl-1H-imidazole-4-sulfonamide]",–,–,–,–,–,–,1.89 nM,98.3,101,105,99.3,99.3,103
"CC[C@@H](Cc1ccccc1)c1cc(O)c(C(c2cccc(NS(=O)(=O)c3cn(C)cn3)c2)C2CC2)c(=O)o1 (single isomer, unassigned) [Example 140, N-(3-(R or S)-{Cyclopropyl-[6-(1-(S)-ethylphenethyl)-4-hydroxy-2-oxo-2H-pyran-3-yl]-methyl}-phenyl)-1-methyl-1H-imidazole-4-sulfonamide]",103.22,96.01,107.37,112.51,112.53,119.14,1.44 nM,–,–,–,–,–,–
"CC[C@H](Cc1ccccc1)c1cc(O)c(C(c2cccc(NS(=O)(=O)c3ccccn3)c2)C2CC2)c(=O)o1 (single isomer, unassigned) [Example 141, N-(3-(R or S)-{Cyclopropyl-[6-(1-(R)-ethylphenethyl)-4-hydroxy-2-oxo-2H-pyran-3-yl]-methyl}-phenyl)-2-pyridinesulfonamide]",–,–,–,–,–,–,1.4 nM,78.7,88.7,92,88.3,97.8,98.5
"CC[C@H](Cc1ccccc1)c1cc(O)c(C(c2cccc(NS(=O)(=O)c3ccccn3)c2)C2CC2)c(=O)o1 (single isomer, unassigned) [Example 142, N-(3-(R or S)-{Cyclopropyl-[6-(1-(R)-ethylphenethyl)-4-hydroxy-2-oxo-2H-pyran-3-yl]-methyl}-phenyl)-2-pyridinesulfonamide]",78.01,92.52,106.64,105.15,110.58,106.77,1.6 nM,–,–,–,–,–,–
"CC[C@H](Cc1ccccc1)c1cc(O)c(C(c2cccc(NS(=O)(=O)c3nccn3C)c2)C2CC2)c(=O)o1 (single isomer, unassigned) [Example 143, N-(3-(R or S)-{Cyclopropyl-[6-(1-(R)-ethylphenethyl)-4-hydroxy-2-oxo-2H-pyran-3-yl]-methyl}-phenyl)-1-methyl-1H-imidazole-2-sulfonamide]",–,–,–,–,–,–,0.8 nM,80.8,97.7,105,102,101,103
"CC[C@H](Cc1ccccc1)c1cc(O)c(C(c2cccc(NS(=O)(=O)c3nccn3C)c2)C2CC2)c(=O)o1 (single isomer, unassigned) [Example 144, N-(3-(R or S)-{Cyclopropyl-[6-(1-(R)-ethylphenethyl)-4-hydroxy-2-oxo-2H-pyran-3-yl]-methyl}-phenyl)-1-methyl-1H-imidazole-2-sulfonamide]",80.58,87.39,93.82,100.01,98.12,95.88,1.2 nM,–,–,–,–,–,–
"CC[C@H](Cc1ccccc1)c1cc(O)c(C(c2cccc(NS(=O)(=O)c3ccc(C#N)cc3)c2)C2CC2)c(=O)o1 (single isomer, unassigned) [Example 148, N-(3-(R or S)-{Cyclopropyl-[6-(1-(R)-ethylphenethyl)-4-hydroxy-2-oxo-2H-pyran-3-yl]-methyl}-phenyl)-4-cyanobenzenesulfonamide]",–,–,–,–,–,–,4.77 nM and 18.1 nM,81.3,91.7,95.6,90,99.2,93.5
